Assay results as given in ChEMBL document CHEMBL3885881, “DrugMatrix”.

Organism: Rattus norvegicus
Assay: DrugMatrix - Regimen: Daily Repeat
Format: toxicity, organism-based, Sprague-Dawley
Design: regimen Daily Repeat, gender Male, age 6-8 weeks
Settings: in vivo, po, route oral GAVAGE, […]; for ABSOLUTE BASOPHIL / ABSOLUTE EOSINOPHIL / ABSOLUTE LYMPHOCYTE / ABSOLUTE MONOCYTE / ABSOLUTE SEGMENTED NEUTROPHIL / BASOPHIL / EOSINOPHIL / ERYTHROCYTE COUNT / HEMATOCRIT / HEMOGLOBIN / LEUKOCYTE COUNT / LYMPHOCYTE / MEAN CORPUSCULAR HEMOGLOBIN / MEAN CORPUSCULAR HEMOGLOBIN CONCENTRATION / MEAN CORPUSCULAR VOLUME / MONOCYTE / NEUTROPHIL / NUCLEATED RED BLOOD CELLS / PLATELET COUNT: tissue Blood; for ALANINE AMINOTRANSFERASE / ALBUMIN / ALKALINE PHOSPHATASE / ASPARTATE AMINOTRANSFERASE / BLOOD UREA NITROGEN / CARBON DIOXIDE / CHLORIDE / CHOLESTEROL / CREATINE PHOSPHOKINASE / CREATININE / GLUCOSE / LACTATE DEHYDROGENASE / LIPASE / PHOSPHORUS / POTASSIUM / SODIUM / TOTAL BILIRUBIN / TOTAL PROTEIN / URIC ACID: tissue Plasma
[1] = 10 mg/kg, 72 h, dose level Low, time 3 day
[2] = 10 mg/kg, 120 h, dose level Low, time 5 day
[3] = 50 mg/kg, 72 h, dose level High, time 3 day
[4] = 50 mg/kg, 120 h, dose level High, time 5 day

## CC(C)CC(N(C)C)C1(c2ccc(Cl)cc2)CCC1 (configuration not stated) [SIBUTRAMINE]
[1]
  ABSOLUTE BASOPHIL: 0 CELLS/uL
  ABSOLUTE EOSINOPHIL: 0 CELLS/uL
  ABSOLUTE LYMPHOCYTE: 16618.67 CELLS/uL
  ABSOLUTE MONOCYTE: 131.33 CELLS/uL
  ABSOLUTE SEGMENTED NEUTROPHIL: 1483.33 CELLS/uL
  BASOPHIL: 0%
  EOSINOPHIL: 0%
  ERYTHROCYTE COUNT: 5.37 x10E6/uL
  HEMATOCRIT: 34.23%
  HEMOGLOBIN: 13.53 G/DL
  LEUKOCYTE COUNT: 18.23 x10E3/uL
  LYMPHOCYTE: 91%
  MEAN CORPUSCULAR HEMOGLOBIN: 25.17 pg
  MEAN CORPUSCULAR HEMOGLOBIN CONCENTRATION: 39.53 G/DL
  MEAN CORPUSCULAR VOLUME: 63.67 fL
  MONOCYTE: 0.67%
  NEUTROPHIL: 8.33%
  NUCLEATED RED BLOOD CELLS: 0.33 /100WBC
  PLATELET COUNT: 1187.67 x10E3/uL
  ALANINE AMINOTRANSFERASE: 61.33 u/L
  ALBUMIN: 3.93 G/DL
  ALKALINE PHOSPHATASE: 368 u/L
  ASPARTATE AMINOTRANSFERASE: 88.33 u/L
  BLOOD UREA NITROGEN: 12 mg/dL
  CARBON DIOXIDE: 33 mmol/L
  CHLORIDE: 100.33 MEQ/L
  CHOLESTEROL: 70 mg/dL
  CREATINE PHOSPHOKINASE: 531.67 u/L
  CREATININE: 0.1 mg/dL
  GLUCOSE: 158.33 mg/dL
  LACTATE DEHYDROGENASE: 253.33 u/L
  LIPASE: 10.33 u/L
  PHOSPHORUS: 11.93 mg/dL
  POTASSIUM: 6.44 MEQ/L
  SODIUM: 140.57 MEQ/L
  TOTAL BILIRUBIN: 0.13 mg/dL
  TOTAL PROTEIN: 5.37 G/DL
  URIC ACID: 1.27 mg/dL
[2]
  ABSOLUTE BASOPHIL: 0 CELLS/uL
  ABSOLUTE EOSINOPHIL: 0 CELLS/uL
  ABSOLUTE LYMPHOCYTE: 12939.67 CELLS/uL
  ABSOLUTE MONOCYTE: 411.33 CELLS/uL
  ABSOLUTE SEGMENTED NEUTROPHIL: 1515.67 CELLS/uL
  BASOPHIL: 0%
  EOSINOPHIL: 0%
  ERYTHROCYTE COUNT: 5.44 x10E6/uL
  HEMATOCRIT: 33.73%
  HEMOGLOBIN: 13.47 G/DL
  LEUKOCYTE COUNT: 14.87 x10E3/uL
  LYMPHOCYTE: 86.67%
  MEAN CORPUSCULAR HEMOGLOBIN: 24.83 pg
  MEAN CORPUSCULAR HEMOGLOBIN CONCENTRATION: 39.93 G/DL
  MEAN CORPUSCULAR VOLUME: 62.2 fL
  MONOCYTE: 2.67%
  NEUTROPHIL: 10.67%
  NUCLEATED RED BLOOD CELLS: 0 /100WBC
  PLATELET COUNT: 1072.33 x10E3/uL
  ALANINE AMINOTRANSFERASE: 55.67 u/L
  ALBUMIN: 4.07 G/DL
  ALKALINE PHOSPHATASE: 363.67 u/L
  ASPARTATE AMINOTRANSFERASE: 79.33 u/L
  BLOOD UREA NITROGEN: 14 mg/dL
  CARBON DIOXIDE: 34.33 mmol/L
  CHLORIDE: 101.33 MEQ/L
  CHOLESTEROL: 72 mg/dL
  CREATINE PHOSPHOKINASE: 211.33 u/L
  CREATININE: 0.23 mg/dL
  GLUCOSE: 148.67 mg/dL
  LACTATE DEHYDROGENASE: 269 u/L
  LIPASE: 11 u/L
  PHOSPHORUS: 10.8 mg/dL
  POTASSIUM: 6.14 MEQ/L
  SODIUM: 143.2 MEQ/L
  TOTAL BILIRUBIN: 0.17 mg/dL
  TOTAL PROTEIN: 5.57 G/DL
  URIC ACID: 1.07 mg/dL
[3]
  ABSOLUTE BASOPHIL: 0 CELLS/uL
  ABSOLUTE EOSINOPHIL: 0 CELLS/uL
  ABSOLUTE LYMPHOCYTE: 12941.33 CELLS/uL
  ABSOLUTE MONOCYTE: 144.33 CELLS/uL
  ABSOLUTE SEGMENTED NEUTROPHIL: 2147.67 CELLS/uL
  BASOPHIL: 0%
  EOSINOPHIL: 0%
  ERYTHROCYTE COUNT: 5.65 x10E6/uL
  HEMATOCRIT: 35.8%
  HEMOGLOBIN: 14.6 G/DL
  LEUKOCYTE COUNT: 15.23 x10E3/uL
  LYMPHOCYTE: 85.33%
  MEAN CORPUSCULAR HEMOGLOBIN: 25.83 pg
  MEAN CORPUSCULAR HEMOGLOBIN CONCENTRATION: 40.8 G/DL
  MEAN CORPUSCULAR VOLUME: 63.37 fL
  MONOCYTE: 1%
  NEUTROPHIL: 13.67%
  NUCLEATED RED BLOOD CELLS: 0 /100WBC
  PLATELET COUNT: 1122.33 x10E3/uL
  ALANINE AMINOTRANSFERASE: 51.33 u/L
  ALBUMIN: 3.67 G/DL
  ALKALINE PHOSPHATASE: 417 u/L
  ASPARTATE AMINOTRANSFERASE: 96 u/L
  BLOOD UREA NITROGEN: 13 mg/dL
  CARBON DIOXIDE: 31.67 mmol/L
  CHLORIDE: 102.33 MEQ/L
  CHOLESTEROL: 68.67 mg/dL
  CREATINE PHOSPHOKINASE: 259.67 u/L
  CREATININE: 0.14 mg/dL
  GLUCOSE: 156.33 mg/dL
  LACTATE DEHYDROGENASE: 181 u/L
  LIPASE: 10 u/L
  PHOSPHORUS: 11.27 mg/dL
  POTASSIUM: 5.99 MEQ/L
  SODIUM: 144.97 MEQ/L
  TOTAL BILIRUBIN: 0.17 mg/dL
  TOTAL PROTEIN: 5.37 G/DL
  URIC ACID: 1.3 mg/dL
[4]
  ABSOLUTE BASOPHIL: 0 CELLS/uL
  ABSOLUTE EOSINOPHIL: 0 CELLS/uL
  ABSOLUTE LYMPHOCYTE: 16000.33 CELLS/uL
  ABSOLUTE MONOCYTE: 0 CELLS/uL
  ABSOLUTE SEGMENTED NEUTROPHIL: 833 CELLS/uL
  BASOPHIL: 0%
  EOSINOPHIL: 0%
  ERYTHROCYTE COUNT: 5.75 x10E6/uL
  HEMATOCRIT: 36.37%
  HEMOGLOBIN: 14.3 G/DL
  LEUKOCYTE COUNT: 16.83 x10E3/uL
  LYMPHOCYTE: 95%
  MEAN CORPUSCULAR HEMOGLOBIN: 24.9 pg
  MEAN CORPUSCULAR HEMOGLOBIN CONCENTRATION: 39.33 G/DL
  MEAN CORPUSCULAR VOLUME: 63.37 fL
  MONOCYTE: 0%
  NEUTROPHIL: 5%
  NUCLEATED RED BLOOD CELLS: 0 /100WBC
  PLATELET COUNT: 1265 x10E3/uL
  ALANINE AMINOTRANSFERASE: 57.33 u/L
  ALBUMIN: 4.07 G/DL
  ALKALINE PHOSPHATASE: 391.67 u/L
  ASPARTATE AMINOTRANSFERASE: 95.67 u/L
  BLOOD UREA NITROGEN: 14.67 mg/dL
  CARBON DIOXIDE: 30 mmol/L
  CHLORIDE: 102 MEQ/L
  CHOLESTEROL: 56 mg/dL
  CREATINE PHOSPHOKINASE: 585 u/L
  CREATININE: 0.11 mg/dL
  GLUCOSE: 164 mg/dL
  LACTATE DEHYDROGENASE: 175.33 u/L
  LIPASE: 9.67 u/L
  PHOSPHORUS: 12.43 mg/dL
  POTASSIUM: 6.27 MEQ/L
  SODIUM: 142.13 MEQ/L
  TOTAL BILIRUBIN: 0.1 mg/dL
  TOTAL PROTEIN: 5.6 G/DL
  URIC ACID: 1.73 mg/dL
